# Experimental data from US8637525B2, “Compounds for the reduction of beta-amyloid production” (Bristol-Myers Squibb Company, priority 2009, dated 2014).
# System: Aβ1-42 production
# Experiment: Cellular assay for inhibition of Aβ1-42 production (H4 APP751 SWE clone 8.20)
# Assay type: cell-based
# Details: 19 h, H4 APP751 SWE clone 8.20 cells, 19 h incubation; class symbols; read-out: Activity Rating (Aβ42 cellular IC50)
# Experimental: Cellular Assays for Inhibition of Aβ1-40 and Aβ1-42 Production
# H4 cells stably transfected with APP751 containing the Swedish mutation (H4 APP751 SWE clone 8.20, developed at BMS) were maintained in log phase through twice weekly passage at a 1:20 split. […] Following incubation for 19 h in 5% CO2 at 37° C., plates were briefly centrifuged (1000 rpm, 5 min). A 10 μl aliquot from each well was transferred to a second assay plate (Costar 3709) for Aβ40 measurements. Antibody cocktails were freshly prepared by dilution into 40 mM Tris-HCl (pH 7.4) with 0.2% BSA and added to assay plates. For Aβ42 measurements, antibodies specific for the Aβ42 neoepitope (565, developed at BMS; conjugated to the Wallac reagent (Perkin Elmer)) and the N-terminal sequence of Aβ peptide (26D6, developed at SIBIA; conjugated to APC (Perkin Elmer)) were mixed and 20 μl of the mixture was added to each well of the incubated cell plate yielding a final concentration of 0.8 ng/well 565 and 75 ng/well 26D6. For the Aβ40 measurements, antibodies specific for the Aβ40 neoepitope (TSD, developed at BMS; conjugated to the Wallac reagent (Perkin Elmer)) and 26D6 as described above were mixed and 20 μl of the mixture was added to the 10 μl aliquots which had been removed previously from the cell plate yielding a final concentration of 1.6 ng/well TSD and 17.5 ng/well 26D6. Assay plates containing antibodies were sealed with aluminum foil and incubated overnight at 4° C. Signal was determined using a Viewlux counter (Perkin Elmer) and IC50 values determined using curve fitting in CurveMaster (Excel Fit based).
row,SMILES,IC50
1,"CNc1nc(Nc2ccc(-n3cnc(C)n3)c(OC)c2)nc2c1CCC2c1ccccc1 (stereo not shown) [Example 1, N2-(3-methoxy-4-(3-methyl-1H-1,2,4-triazol-1-yl)phenyl)-N4-methyl-7-phenyl-6,7-dihydro-5H-cyclopenta[d]pyrimidine-2,4-diamine]",0.0015 to 0.0099 µM
2,"CNc1nc(Nc2ccncc2)nc2c1CCC2c1ccccc1 (stereo not shown) [Example 224, N4-methyl-7-phenyl-N2-(pyridin-4-yl)-6,7-dihydro-5H-cyclopenta[d]pyrimidine-2,4-diamine]",> 1 µM
3,"CNc1nc(Nc2ccc(-n3cnc(C)n3)c(F)c2)nc2c1CCC2c1ccc(F)cc1 (stereo not shown) [Example 35, N^2-(3-fluoro-4-(3-methyl-1H-1,2,4-triazol-1-yl)phenyl)-7-(4-fluorophenyl)-N^4-methyl-6,7-dihydro-5H-cyclopenta[d]pyrimidine-2,4-diamine]",0.0015 to 0.0099 µM
4,"CNc1nc(Nc2ccc(-n3cnc(C)n3)c(OC)c2)nc2c1CC[C@@]2(C)c1ccc(F)cc1 (single isomer, unassigned) [Example 265A]",0.01 to 0.1 µM
5,"CNc1nc(Nc2ccc(-c3cnn(C)c3)c(OC)c2)nc2c1CCC2c1ccccc1 (stereo not shown) [Example 209, N2-(3-methoxy-4-(1-methyl-1H-pyrazol-4-yl)phenyl)-N4-methyl-7-phenyl-6,7-dihydro-5H-cyclopenta[d]pyrimidine-2,4-diamine]",0.0015 to 0.0099 µM
6,"CNc1nc(Nc2ccc(-n3cnc(Cl)c3)c(OC)c2)nc2c1/C(=N/OC)CC2c1ccccc1 (stereo not shown) [Example 201B, (E)-2-(4-(4-chloro-1H-imidazol-1-yl)-3-methoxyphenylamino)-4-(methylamino)-7-phenyl-6,7-dihydro-5H-cyclopenta[d]pyrimidin-5-one O-methyl oxime]",0.01 to 0.1 µM
7,"COc1cc(Nc2nc3c(c(N4CCC(C)(N)CC4)n2)CCC3c2ccc(F)cc2)ccc1-n1cnc(Cl)c1 (stereo not shown) [Example 25, 4-(4-amino-4-methylpiperidin-1-yl)-N-(4-(4-chloro-1H-imidazol-1-yl)-3-methoxyphenyl)-7-(4-fluorophenyl)-6,7-dihydro-5H-cyclopenta[d]pyrimidin-2-amine]",0.01 to 0.1 µM
8,"CNc1nc(Nc2ccc(S(C)(=O)=O)cc2)nc2c1CCC2c1ccccc1 (stereo not shown) [Example 235, N4-methyl-N2-(4-(methylsulfonyl)phenyl)-7-phenyl-6,7-dihydro-5H-cyclopenta[d]pyrimidine-2,4-diamine]",0.1 to 1 µM

# Same assay, conditions: 19 h, H4 APP751 SWE clone 8.20 cells, 19 h incubation; read-out: Activity Rating (Aβ42 cellular IC50), numeric value
row,SMILES,IC50
1,"Cc1ccc(C(C)C)cc1Nc1nc(Nc2ccc(C#N)cc2)nc2c1CCC2c1ccccc1 (stereo not shown) [Example 215B, 4-(4-(5-isopropyl-2-methylphenylamino)-7-phenyl-6,7-dihydro-5H-cyclopenta[d]pyrimidin-2-ylamino)benzonitrile]",0.173 µM
2,"COc1cc(Nc2nc3c(c(N4CCCC4C)n2)CCC3c2ccc(F)cc2)ccc1-n1cnc(Cl)c1 (single isomer, unassigned) [Example 19B, N-(4-(4-chloro-1H-imidazol-1-yl)-3-methoxyphenyl)-7-(4-fluorophenyl)-4-(2-methylpyrrolidin-1-yl)-6,7-dihydro-5H-cyclopenta[d]pyrimidin-2-amine]",0.059 µM
3,"COc1cc(Nc2nc3c(c(N4CC(OC)C4)n2)CCC3c2ccccc2)ccc1-n1cnc(Cl)c1 (stereo not shown) [Example 183, N-(4-(4-chloro-1H-imidazol-1-yl)-3-methoxyphenyl)-4-(3-methoxyazetidin-1-yl)-7-phenyl-6,7-dihydro-5H-cyclopenta[d]pyrimidin-2-amine]",0.011 µM
4,"COc1cc(Nc2nc3c(c(N4CC[C@@H](F)C4)n2)CCC3c2ccc(F)cc2)ccc1-n1cnc(Cl)c1 (single isomer, unassigned) [Example 38A]",0.012 µM
5,"CNc1nc(Nc2ccc(-n3cnc(Cl)c3)c(OC)c2)nc2c1/C(=N/OC)CC2c1ccccc1 (stereo not shown) [Example 201, (E)-2-(4-(4-chloro-1H-imidazol-1-yl)-3-methoxyphenylamino)-4-(methylamino)-7-phenyl-6,7-dihydro-5H-cyclopenta[d]pyrimidin-5-one O-methyl oxime]",0.0053 µM

# Same assay, conditions: H4 APP751 SWE clone 8.20 cells, 19 h incubation; class symbols; read-out: Activity Rating (Aβ42 cellular IC50)
row,SMILES,IC50
1,"COc1cc(Nc2nc3c(c(N4CCC(F)(F)C4)n2)CCC3c2cc(F)c(F)c(F)c2)ccc1-n1cnc(Cl)c1 (single isomer, unassigned) [Example 107A, N-(4-(4-chloro-1H-imidazol-1-yl)-3-methoxyphenyl)-4-(3,3-difluoropyrrolidin-1-yl)-7-(3,4,5-trifluorophenyl)-6,7-dihydro-5H-cyclopenta[d]pyrimidin-2-amine]",0.01 to 0.1 µM
2,"COc1cc(Nc2nc3c(c(N4CC[C@@H](F)C4)n2)COC3c2ccc(F)cc2)ccc1-n1cnc(Cl)c1 (single isomer, unassigned) [Example 83A]",0.0015 to 0.0099 µM
3,"COc1cc(Nc2nc3c(c(N(C)C)n2)CCC3c2ccc(F)c(F)c2)ccc1-n1cnc(Cl)c1 (single isomer, unassigned) [Example 95A, N^2-(4-(4-chloro-1H-imidazol-1-yl)-3-methoxyphenyl)-7-(3,4-difluorophenyl)-N^4,N^4-dimethyl-6,7-dihydro-5H-cyclopenta[d]pyrimidine-2,4-diamine]",0.0015 to 0.0099 µM
4,"COc1cc(Nc2nc3c(c(N4C[C@@H](C)O[C@@H](C)C4)n2)CCC3c2ccc(F)cc2)ccc1-n1cnc(Cl)c1 (single isomer, unassigned) [Example 21A]",0.01 to 0.1 µM
5,"CNc1nc(Nc2ccc(-n3cnc(Cl)c3)c(OC)c2)nc2c1CCC2c1cc(F)cc(F)c1 (stereo not shown) [Example 102A, N^2-(4-(4-Chloro-1H-imidazol-1-yl)-3-methoxyphenyl)-7-(3,5-difluorophenyl)-N^4-methyl-6,7-dihydro-5H-cyclopenta[d]pyrimidine-2,4-diamine]",0.0015 to 0.0099 µM
6,"CCNc1nc(Nc2ccc(-n3cnc(Cl)c3)c(OC)c2)nc2c1CCN(CC)C2c1ccc(F)cc1 (stereo not shown) [Example 169, N2-(4-(4-chloro-1H-imidazol-1-yl)-3-methoxyphenyl)-N4,7-diethyl-8-(4-fluorophenyl)-5,6,7,8-tetrahydropyrido[3,4-d]pyrimidine-2,4-diamine]",0.01 to 0.1 µM
7,CCNc1nc(Nc2ccc(-n3cnc(Cl)c3)c(OC)c2)nc2c1CN(CC(F)(F)F)CC2c1ccccc1 (stereo not shown) [Example 196A],0.0015 to 0.0099 µM
8,"COc1cc(Nc2nc3c(c(N4CC(F)(F)C4)n2)COCC3c2ccc(F)c(F)c2)ccc1-n1cnc(Cl)c1 (stereo not shown) [Example 114B, N-(4-(4-chloro-1H-imidazol-1-yl)-3-methoxyphenyl)-4-(3,3-difluoroazetidin-1-yl)-8-(3,4-difluorophenyl)-7,8-dihydro-5H-pyrano[4,3-d]pyrimidin-2-amine]",0.1 to 1 µM
9,"COCC(Nc1nc(Nc2ccc(-n3cnc(Cl)c3)c(OC)c2)nc2c1CCC2c1ccc(F)cc1)C1CC1 (single isomer, unassigned) [Example 45C, N2-(4-(4-chloro-1H-imidazol-1-yl)-3-methoxyphenyl)-N4-(1-cyclopropyl-2-methoxyethyl)-7-(4-fluorophenyl)-6,7-dihydro-5H-cyclopenta[d]pyrimidine-2,4-diamine]",0.01 to 0.1 µM
10,"COc1cc(Nc2nc3c(c(N4CC(C)(O)C4)n2)CCC3c2ccc(F)cc2)ccc1-n1cnc(Cl)c1 (stereo not shown) [Example 189, 1-(2-(4-(4-chloro-1H-imidazol-1-yl)-3-methoxyphenylamino)-7-(4-fluorophenyl)-6,7-dihydro-5H-cyclopenta[d]pyrimidin-4-yl)-3-methylazetidin-3-ol]",0.0015 to 0.0099 µM
11,"COc1cc(Nc2nc3c(c(N4C[C@@H](C)O[C@@H](C)C4)n2)CCC3c2ccc(F)cc2)ccc1-n1cnc(Cl)c1 (single isomer, unassigned) [Example 21B]",0.1 to 1 µM
12,"COc1cc(Nc2nc3c(c(N(C)C)n2)COCC3c2ccccc2)ccc1-n1cnc(Cl)c1 (single isomer, unassigned) [Example 53A, N^2-(4-(4-Chloro-1H-imidazol-1-yl)-3-methoxyphenyl)-N^4,N^4-dimethyl-8-phenyl-7,8-dihydro-5H-pyrano[4,3-d]pyrimidine-2,4-diamine]",0.0015 to 0.0099 µM
13,"CCNc1nc(Nc2ccc(-n3ncnc3C)c(F)c2)nc2c1COCC2c1ccc(F)c(F)c1 (stereo not shown) [Example 116A, 8-(3,4-difluorophenyl)-N4-ethyl-N2-(3-fluoro-4-(5-methyl-1H-1,2,4-triazol-1-yl)phenyl)-7,8-dihydro-5H-pyrano[4,3-d]pyrimidine-2,4-diamine]",0.0015 to 0.0099 µM
14,"CCN(C)c1nc(Nc2ccc(-n3cnc(Cl)c3)c(OC)c2)nc2c1CCC2c1ccccc1 (single isomer, unassigned) [Example 5A, N^2-(4-(4-chloro-1H-imidazol-1-yl)-3-methoxyphenyl)-N^4-ethyl-N^4-methyl-7-phenyl-6,7-dihydro-5H-cyclopenta[d]pyrimidine-2,4-diamine]",0.0015 to 0.0099 µM
15,"CCNc1nc(Nc2ccc(-n3cnc(Cl)c3)c(OC)c2)nc2c1CN(C(=O)OC)CC2c1ccccc1 (stereo not shown) [Example 131A, Methyl 2-(4-(4-chloro-1H-imidazol-1-yl)-3-methoxyphenylamino)-4-(ethylamino)-8-phenyl-7,8-dihydropyrido[4,3-d]pyrimidine-6(5H)-carboxylate]",0.0015 to 0.0099 µM
